Results from the NIST ThermoML archive (doi:10.1016/j.fluid.2017.06.022).
± gives the expanded uncertainty stated by the source.

Experiment: xn = mol fraction of the nth substance listed
Conditions: Liquid, Bellows volumetry

C=C [ethene] + Cc1ccccc1
Conditions | mass density [kg/m3]
421 K, 37600 kPa, x1 = 0.3067 | 688.2 ± 16
421 K, 44700 kPa, x1 = 0.3067 | 698 ± 17
421 K, 51000 kPa, x1 = 0.3067 | 705.4 ± 17
421 K, 58300 kPa, x1 = 0.3067 | 714.6 ± 17
421 K, 63100 kPa, x1 = 0.3067 | 720.1 ± 17
421 K, 66800 kPa, x1 = 0.3067 | 724 ± 17
422.2 K, 2530 kPa, x1 = 0.1194 | 681.2 ± 16
422.2 K, 2830 kPa, x1 = 0.1194 | 682.2 ± 16
422.2 K, 3620 kPa, x1 = 0.1194 | 684.1 ± 16
422.2 K, 5330 kPa, x1 = 0.1194 | 688.4 ± 16
422.2 K, 7040 kPa, x1 = 0.1194 | 692.2 ± 17
422.2 K, 7110 kPa, x1 = 0.1194 | 692.2 ± 17
422.2 K, 10420 kPa, x1 = 0.1194 | 699.6 ± 17
422.2 K, 13400 kPa, x1 = 0.1194 | 705.1 ± 17
422.2 K, 17400 kPa, x1 = 0.1194 | 712.2 ± 17
422.2 K, 20480 kPa, x1 = 0.1194 | 716.9 ± 17
422.2 K, 22980 kPa, x1 = 0.1194 | 720.6 ± 17
422.2 K, 24010 kPa, x1 = 0.1194 | 722.1 ± 17
422.2 K, 30990 kPa, x1 = 0.1194 | 731.2 ± 18
422.2 K, 37420 kPa, x1 = 0.1194 | 739.4 ± 18
422.2 K, 44550 kPa, x1 = 0.1194 | 747.3 ± 18
422.2 K, 51320 kPa, x1 = 0.1194 | 755.3 ± 18
422.2 K, 58240 kPa, x1 = 0.1194 | 762.3 ± 18
422.2 K, 63240 kPa, x1 = 0.1194 | 767.6 ± 18
422.2 K, 67210 kPa, x1 = 0.1194 | 771.2 ± 18
470.9 K, 3430 kPa, x1 = 0.1194 | 616.2 ± 15
470.9 K, 3560 kPa, x1 = 0.1194 | 617.7 ± 15
470.9 K, 4240 kPa, x1 = 0.1194 | 620.4 ± 15
470.9 K, 4990 kPa, x1 = 0.1194 | 623.6 ± 15
470.9 K, 5950 kPa, x1 = 0.1194 | 627.5 ± 15
470.9 K, 7310 kPa, x1 = 0.1194 | 631.9 ± 15
470.9 K, 10590 kPa, x1 = 0.1194 | 642.6 ± 15
470.9 K, 14000 kPa, x1 = 0.1194 | 652.4 ± 16
470.9 K, 16940 kPa, x1 = 0.1194 | 659.8 ± 16
470.9 K, 24260 kPa, x1 = 0.1194 | 676.6 ± 16
470.9 K, 31240 kPa, x1 = 0.1194 | 690.3 ± 17
470.9 K, 37460 kPa, x1 = 0.1194 | 701.1 ± 17
470.9 K, 41500 kPa, x1 = 0.1194 | 707.1 ± 17
470.9 K, 44850 kPa, x1 = 0.1194 | 712.2 ± 17
470.9 K, 51420 kPa, x1 = 0.1194 | 720.6 ± 17
470.9 K, 58440 kPa, x1 = 0.1194 | 729.1 ± 18
470.9 K, 62650 kPa, x1 = 0.1194 | 733.4 ± 18
470.9 K, 67380 kPa, x1 = 0.1194 | 738.3 ± 18
475.1 K, 7800 kPa, x1 = 0.3067 | 540.4 ± 13
475.1 K, 8600 kPa, x1 = 0.3067 | 545.2 ± 13
475.1 K, 9400 kPa, x1 = 0.3067 | 551 ± 13
475.1 K, 10600 kPa, x1 = 0.3067 | 557.2 ± 13
475.1 K, 12100 kPa, x1 = 0.3067 | 565.4 ± 14
475.1 K, 14000 kPa, x1 = 0.3067 | 572.7 ± 14
475.1 K, 17400 kPa, x1 = 0.3067 | 586 ± 14
475.1 K, 20700 kPa, x1 = 0.3067 | 598.4 ± 14
475.1 K, 24300 kPa, x1 = 0.3067 | 609 ± 15
475.1 K, 30800 kPa, x1 = 0.3067 | 625.7 ± 15
475.1 K, 37500 kPa, x1 = 0.3067 | 640.8 ± 15
475.1 K, 44500 kPa, x1 = 0.3067 | 654.3 ± 16
475.1 K, 51800 kPa, x1 = 0.3067 | 666.5 ± 16
475.1 K, 58100 kPa, x1 = 0.3067 | 676.2 ± 16
475.1 K, 63100 kPa, x1 = 0.3067 | 682.6 ± 16
475.1 K, 67400 kPa, x1 = 0.3067 | 687.7 ± 16
519 K, 4500 kPa, x1 = 0.1194 | 541.1 ± 13
519 K, 5100 kPa, x1 = 0.1194 | 547.1 ± 13
519 K, 6120 kPa, x1 = 0.1194 | 555.5 ± 13
519 K, 7100 kPa, x1 = 0.1194 | 562.7 ± 14
519 K, 8870 kPa, x1 = 0.1194 | 573.5 ± 14
519 K, 10630 kPa, x1 = 0.1194 | 583 ± 14
519 K, 13940 kPa, x1 = 0.1194 | 597.1 ± 14
519 K, 14140 kPa, x1 = 0.1194 | 598.2 ± 14
519 K, 17480 kPa, x1 = 0.1194 | 610.1 ± 15
519 K, 24180 kPa, x1 = 0.1194 | 630.3 ± 15
519 K, 31210 kPa, x1 = 0.1194 | 647.7 ± 16
519 K, 38050 kPa, x1 = 0.1194 | 662.1 ± 16
519 K, 44340 kPa, x1 = 0.1194 | 674.3 ± 16
519 K, 51320 kPa, x1 = 0.1194 | 686.5 ± 16
519 K, 51390 kPa, x1 = 0.1194 | 686.5 ± 16
519 K, 58160 kPa, x1 = 0.1194 | 697.1 ± 17
519 K, 63090 kPa, x1 = 0.1194 | 704.6 ± 17
519 K, 66990 kPa, x1 = 0.1194 | 709.7 ± 17
519.3 K, 8400 kPa, x1 = 0.3067 | 448 ± 11
519.3 K, 8600 kPa, x1 = 0.3067 | 455.1 ± 11
519.3 K, 9400 kPa, x1 = 0.3067 | 472 ± 11
519.3 K, 10500 kPa, x1 = 0.3067 | 482.9 ± 12
519.3 K, 12000 kPa, x1 = 0.3067 | 499.7 ± 12
519.3 K, 13800 kPa, x1 = 0.3067 | 513.9 ± 12
519.3 K, 14100 kPa, x1 = 0.3067 | 515.9 ± 12
519.3 K, 15900 kPa, x1 = 0.3067 | 525.1 ± 13
519.3 K, 17200 kPa, x1 = 0.3067 | 535.5 ± 13
519.3 K, 20900 kPa, x1 = 0.3067 | 553.6 ± 13
519.3 K, 24100 kPa, x1 = 0.3067 | 565.7 ± 14
519.3 K, 31300 kPa, x1 = 0.3067 | 589.3 ± 14
519.3 K, 37800 kPa, x1 = 0.3067 | 605 ± 14
519.3 K, 44900 kPa, x1 = 0.3067 | 621.2 ± 15
519.3 K, 51600 kPa, x1 = 0.3067 | 636.4 ± 15
519.3 K, 58300 kPa, x1 = 0.3067 | 647.5 ± 16
519.3 K, 63100 kPa, x1 = 0.3067 | 656.6 ± 16
519.3 K, 67100 kPa, x1 = 0.3067 | 662.7 ± 16
